Reference: patent publication US20250332176A1, “TREATMENT FOR FIBROSIS AND INHIBITION OF FIBROSIS” (GALMED RESEARCH AND DEVELOPMENT LTD, priority 2022, published 2025)
Values joined by “and” are separate entries in the source; they are usually repeats but may differ in a detail not shown here. Equal entries are not always repeated. “Also recorded” adds a separate entry of the source. Where two headings read alike, the source gives them in different places.

Tests used:
0.1MCD-fed mice = assay: 0.1% methionine- and choline-deficient (0.1MCD) diet mouse model of NASH; assay type: in vivo
Text: The study described below investigates the mechanism of action of Aramchol™ and its potential effect on fibrosis using the 0.1% methionine- and choline-deficient (0.1MCD) diet mouse model of NASH.
C57BI/6 were fed the Methionine and Choline Deficient (MCD) and control diet and were sacrificed after 4 weeks. The MCD diet induces aminotransferase elevation and changes in hepatic histological features, characterized by steatosis, local inflammation, hepatocyte necrosis and fibrosis. These changes occur rapidly and are morphologically similar to those observed in human NASH. In this study the MCD diet contained 0.1% methionine to minimize and stabilize weight loss. At the end of the second week, after verification of established NASH, 0.1MCD-fed mice were treated orally by gavage with Aramchol™ (5 mg/Kg/day) or vehicle (n=10, each condition). Control diet-fed mice were also treated with vehicle for same duration (n=10). At the end of the experiment, blood and liver samples were obtained. A diagram of the experimental design is shown below: […]

[1] = test system: LX-2, a human hepatic stellate cell line; assay: Mechanistic study in hepatic stellate cells (qPCR, Western, RNAseq, GSEA); assay type: cell-based; settings: Aramchol 10 μM
Description: (§1) Serum-starved LX2 cells were treated with Aramchol™ (10 μM) for 24 or 48 hours. Fibrogenic gene expression and SCD-1 protein expression were measured by qPCR and Western, respectively. RNAseq was performed at 24 and 48 h in duplicate. Differential gene expression was assessed with DSeq2, while gene set enrichment analysis (GSEA) and gene ontology (GO) analyses assessed functionality of gene expression changes. Primary hepatocytes from C57BL/6 mice were harvested by perfusion and treated with Aramchol™ ([…]) for 48 hours in culture. PPAR γ mRNA expression was measured by qPCR.

[2] = Phase 2b steady state trough (Cmin) plasma concentration in patients; assay type: in vivo, human; settings: for AUC/Dose / Relative bioavailability (AUC/Dose normalized to 30 mg HV data) / concentration at 84 day / AUC: patients; for AUC/Dose / Relative bioavailability (AUC/Dose normalized to 30 mg HV data) / concentration at 84 day: D84; for concentration at 84 day: read-out: SS Cmin; for AUC: estimated from observed Cmin on D84*24 h
Text: Blood sample for Aramchol™ trough level will be collected (pre-dose) from patients in Israel at baseline (visit 2) week 4 (visit 4), week 12 (visit 6), week 24 (visit 7), week 40 (visit 9), end of treatment (visit 10) and follow up (visit 11). At selected sites in Mexico, USA and Hong Kong one blood sample will be collected (pre-dose) on visit 4 (up to 10 subjects per country) to test for trough Aramchol™ blood level differences between populations (e.g., African American, Asian, Hispanic).
(§2) Table 1 summarizes the reported plasma exposure from three studies-single dose Phase I in healthy volunteers (30-900 mg, AUC=AUCinf); Phase II ARAMCHOL™ 003 repeat dose study (AUC on D84 from 100 & 300 mg QD), Phase IIb Cmin on D84 (400 and 600 mg QD).
The steady state (day 84) Cmin in patients at 400 mg and 600 mg has been measured. […] Again, this may reflect inter-subject variability or a difference in the excipients used in the tablets.

[3] = Modelling and simulation of 300 mg BID and 600 mg QD doses in patients (Phoenix 64, single compartment); design: species or system human; settings: correction for sub-proportional PK
Description: Given the sub-proportional exposure generally seen, splitting the same total daily dose into two BID doses is likely to increase plasma AUC. The aim of this analysis was to model this behavior.
The 300 mg data on day 1 and day 84 in patients (Phase 2 ARAMCHOL™ 003) has been modelled in Phoenix 64@ assuming single compartment pharmacokinetics (parameterized by Cl and V) and first order absorption at a rate Ka with a delay, Tlag. The fitted model parameters all have a CV<25% and the predicted concentration data reasonably capture the observed data as shown in FIGS. 13A-13C.
To predict exposure at 600 mg, a correction for sub-proportional PK (lower bioavailability at higher dose) has been made assuming the same non-linearity at observed in healthy volunteers.

[4] = test system: LX-2 human hepatic stellate cells; assay: Inhibition of collagen synthesis in stellate cells (COL1A1, PPARγ expression, collagen production); assay type: cell-based
Description: LX2 cells (150.000 cells per well) were plated in DMEM media containing antibiotics, glutamine and bovine fetal serum. After 24 hours incubation, media was changed to 0% serum and incubated for an additional period of 16 hours. Then, Aramchol™ (10 mM) was added and 24 hours later RNA was extracted with Trizol.

[5] = Phase 2 ARAMCHOL 003 repeat dose plasma exposure in patients; assay type: in vivo, human; settings: for AUC/Dose / Relative bioavailability (AUC/Dose normalized to 30 mg HV data) / AUC at 84 day: patients; for AUC/Dose / Relative bioavailability (AUC/Dose normalized to 30 mg HV data): D84; for AUC at 84 day: human, plasma, oral
Description: as §2
Exposure in patients is also sub-proportional from 100 to 300 mg. […] This may be due to the use of a tablet formulation in the patient study versus the powder/suspension in healthy volunteers or may simply reflect a high degree of inter-subject variability (typically exposure CV is >50% within a study group).

[6] = Phase 1 single dose plasma exposure in healthy volunteers; assay type: in vivo, human; settings: for AUC: human, plasma, oral, AUC=AUCinf
Description: as §2
Biovailability relative to 30 […] has been calculated as (AUC/Dose)/(AUC/30 mg) and is plotted for this group in FIG. 11.

[7] = test system: Primary hepatocytes from C57BL/6 mice; assay: PPARγ mRNA expression in primary hepatocytes (qPCR); assay type: cell-based; settings: Aramchol 10 μM, 48 hours
Description: as §1

human NAFLD = assay: 3-month phase 2a human NAFLD study; assay type: in vivo
[8] = 5 mg/Kg/day orally by gavage from end of second week to week 4
[9] = 5 mg/Kg/day orally by gavage, liver

## CCCCCCCCCCCCCCCCCCCC(=O)N[C@H]1CC[C@@]2(C)[C@@H](C1)C[C@@H](O)[C@@H]1[C@@H]2C[C@H](O)[C@]2(C)[C@@H]([C@H](C)CCC(=O)O)CC[C@@H]12 [Aramchol™, 3β-arachidylamido-7α, 12α-dihydroxy-5β-cholan-24-oic acid]
0.1MCD-fed mice; 5 mg/Kg/day orally by gavage
  hepatic content of diglycerides (DG) and TG: reduction
0.1MCD-fed mice; [8]
  GSH/GSSG ratio: elevates; also recorded: normalization
  collagen in the liver (liver extract): significantly down regulates
  fibrosis in the liver (sirius red): significantly down regulates/normalizes
  glutathione in liver: significantly up regulates
  infiltration and activation status of macrophages in the liver (F4/80, CD64): significantly down regulates/normalizes
  steatosis in the liver (Sudan III): significantly down regulates
0.1MCD-fed mice; [9]
  FA(16:1)/FA(16:0) ratio: marked decrease
  SCD1 activity: reduced
  SCD1 expression: marked decrease
  content of total oxFA including oxLA: marked reduction
  total content of monounsaturated FA (MUFA): marked decrease
[1]; 24 or 48 hours
  cholesterol biosynthesis (Gene Set Enrichment Analysis): downregulates
  collagen formation (Gene Set Enrichment Analysis): downregulates
[1]; 24 or 48 hours, serum-starved
  PPARγ mRNA (RT-PCR): upregulates
  SCD-1 mRNA (RT-PCR): downregulates
  fibrogenic genes (RT-PCR): downregulates
[1]; 24 or 48 hrs
  SCD-1 protein (Western Blot, densitometry): downregulates
[1]; 48 hrs
  PPARγ mRNA (RNASeq): upregulation
  cholesterol efflux regulatory protein ABCA1 (RNASeq): upregulated
  fibrogenic genes and SCD-1 mRNA (RNASeq): downregulation; also recorded: downregulates
[2]; 400 mg QD
  AUC/Dose: 172 ng/mL · h/(mg/kg)
  Relative bioavailability (AUC/Dose normalized to 30 mg HV data): 0.43
[2]; 600 mg QD
  AUC/Dose: 144 ng/mL · h/(mg/kg)
  Relative bioavailability (AUC/Dose normalized to 30 mg HV data): 0.36
[2]; human, plasma, oral
  half-life: > 1440 min
[2]; human, plasma, oral, 400 mg QD
  concentration at 84 day: 2860 ng/mL
  AUC: 68600 ng·h/mL
[2]; human, plasma, oral, 600 mg QD
  concentration at 84 day: 3610 ng/mL
  AUC: 86700 ng·h/mL
[3]
  relative bioavailability at 600 mg compared to 300 mg: approximately 0.75 fold
[4]; Aramchol 10 mM, 24 hours, RNA
  COL1A1 expression: significantly reduced
  PPARγ expression: up-regulation
[4]; relative to a DMSO control
  collagen production: significantly down regulates
[5]; 100 mg QD repeat dose
  AUC/Dose: 197 ng/mL · h/(mg/kg)
  Relative bioavailability (AUC/Dose normalized to 30 mg HV data): 0.50
[5]; 300 mg
  steady-state AUC in patients lower than AUCinf from a single dose in healthy volunteers: approximately 2 fold
[5]; 300 mg QD repeat dose
  AUC/Dose: 110 ng/mL · h/(mg/kg)
  Relative bioavailability (AUC/Dose normalized to 30 mg HV data): 0.28
[5]; 100 mg QD repeat dose, AUC on D84
  AUC at 84 day: 19700 ng·h/mL
[5]; 300 mg QD repeat dose, AUC on D84 (steady-state)
  AUC at 84 day: 33000 ng·h/mL
[5]; typically, inter-subject variability
  exposure CV within a study group: > 50%
[6]
  exposure (AUC) of single 900 mg dose higher than single 300 mg dose: 1.35 fold
[6]; 30-900 mg
  decrease in AUC/Dose across the dose range: four-fold
[6]; single dose 30 mg
  AUC: 11900 ng·h/mL
  AUC/Dose: 397 ng/mL · h/(mg/kg)
  Relative bioavailability (AUC/Dose normalized to 30 mg HV data): 1
[6]; single dose 100 mg
  AUC: 25700 ng·h/mL
  AUC/Dose: 257 ng/mL · h/(mg/kg)
  Relative bioavailability (AUC/Dose normalized to 30 mg HV data): 0.65
[6]; single dose 300 mg
  AUC: 64300 ng·h/mL
  AUC/Dose: 214 ng/mL · h/(mg/kg)
  Relative bioavailability (AUC/Dose normalized to 30 mg HV data): 0.53 and 0.54
[6]; single dose 900 mg
  AUC: 86900 ng·h/mL
  AUC/Dose: 97 ng/mL · h/(mg/kg)
  Relative bioavailability (AUC/Dose normalized to 30 mg HV data): 0.24
[7]
  PPARγ mRNA expression (qPCR): does not affect
Human NAFLD
  hepatic fat: reduced
